These results are taken from PMC12191924, “A new naphthalene-based fluorogenic substrate for cytochrome P450 4A11” (Biochemical Journal, 2025).

This series has as its system 16 human microsomal P450 enzymes. Put plainly: Probing MONACRA metabolism by 16 recombinant human P450 enzymes. In kind it is biochemical. Conditions: CYP1A2, 2A6, 2B6, 2C8, 2C9, 2C19, 2D6, 2E1, 2J2, 3A4, 3A5, 4A11, 4F2, 4F3A, 4F3B, 4F12. As to the method:
Based on these observations, we developed a high-throughput automated assay applicable for studying SSPs of MONACRA metabolism by microsomal P450 enzymes. In this procedure, the incubation mixtures containing an NADPH-generating system and various substrate concentrations are placed in a multiwell plate and preincubated at 30°C in a thermostated shaker. The reaction is started by adding microsomal suspension to the final concentration of 0.3–1 mg/ml of microsomal protein or 0.02–0.1 µM of recombinant P450 enzymes in Supersomes. Following the incubation for 20 min at 30°C, the reaction is quenched by adding trichloroacetic acid (final concentration […]). After supplementing the wells with Na-glycine buffer (pH 10.4, final concentration 2.1 M), the plates are subjected to scanning the fluorescence spectra with excitation at 375 nm. This assay, which is described in detail in Materials and Methods, allows reliable detection of the concentrations of HONACRA as low as 0.1 µM.
We used the high-throughput activity assay described above to probe MONACRA metabolism by 16 human microsomal P450 enzymes, namely CYP1A2, CYP2A6, CYP2B6, CYP2C8, CYP2C9, CYP2C19, CYP2D6, CYP2E1, CYP2J2, CYP3A4, CYP3A5, CYP4A11, CYP4F2, CYP4F3A, CYP4F3B, and CYP4F12. […]

SMILES strings stand for the structures. “Also recorded” adds a separate entry of the source.

On to `COc1ccc2cc(C=CC(=O)O)ccc2c1` [MONACRA, 3-(6-methoxynaphthalen-2-yl)acrylic acid], for which the “activity in MONACRA demethylation among 16 recombinant human P450 enzymes” value was “noticeable demethylation activity only with CYP4A11 and CYP1A2; also recorded: detectable activity in MONACRA demethylation was observed only with CYP4A11, CYP1A2, and CYP2C8”.
